Experimental findings from patent publication US3933834A, “Unsymmetrical esters of N-substituted 1,4-dihydropyridine 3,5-dicarboxylic acid” (Bayer Aktiengesellschaft, priority 1972, dated 1976) are described below.

As usually defined, the LD50 is the dose at which mortality reaches 50%.

One series has as its system hypertensive rats. As to the kind of experiment: hypotensive activity: blood pressure of hypertensive rats after peroral administration. The following applies: Rattus norvegicus, po, read-out: Peroral Dose: lowest dose which results in at least a 15 mm Hg reduction in blood pressure. Type of series: in vivo. An excerpt: The hypotensive activity of the present compounds can be observed by measuring the blood pressure of hypertensive rats following administration of the compounds.

For another series, the system named is coronary vessels. The experiment in a line: coronary vessel dilation: rise in oxygen saturation in the coronary sinus in the narcotized, heart-catheterized dog. Type of series: in vivo. As to conditions: intravenous. An excerpt: They can accordingly be used where either or both of these effects are desired. Thus upon parenteral, oral or sublingual administration, the compounds produce a distinct and long lasting dilation of the coronary vessels which is intensified by a simultaneous nitrite-like effect of reducing the load on the heart. […] The effect on heart metabolism is thus one of energy saving. In addition, the compounds lower the blood pressure of normotonic and hypertonic animals and can thus be used as antihypertensive agents. These properties can be conveniently observed in well known laboratory models. Thus, for example, the coronary vessel dilation effect of the compounds of the invention was compared with the action of Persantin by measuring the rise in oxygen saturation in the coronary sinus in the narcotized, heart-catheterized dog, with the results reported in Table I, below.
^1 Dose given in mg/kg. body weight, administered intravenously;
^2 O2 rise given as % rise in oxygen saturation;
^3 Reversion time given is time in hours for reversion to the initial

Series [1] in a line: toxicity (LD50) measured on mice by peroral administration. The following applies: mouse, in vivo, po.

The structures appear in SMILES notation.

In the case of `CCOC(=O)C1=C(C)N(C)C(C)=C(C(=O)OC(C)C)C1c1cccc([N+](=O)[O-])c1` (centres unmarked) [Example 3, 1,2,6-trimethyl-4-(3'-nitrophenyl)-1,4-dihydropyridine-3,5-dicarboxylic acid 3-ethyl-ester-5-isopropyl-ester], the minimal effective dose with hypertensive rats amounted to 0.3 mg/kg. For the same compound, in the series on coronary vessels (0.1 mg/kg), the “O2 % Rise (rise in oxygen saturation in the coronary sinus)” value (“O2 % Rise” for short) was determined as 39% and the “Reversion time (to the initial value)” value was more than 6 h. The compound further yielded an LD50 in series [1] of 3000 mg/kg.

On to `COC(=O)C1=C(C)N(C)C(C)=C(C(=O)OC(C)C)C1c1cccc([N+](=O)[O-])c1` (centres unmarked) [Example 2, 1,2,6-trimethyl-4-(3'-nitrophenyl)-1,4-dihydropyridine-3,5-dicarboxylic acid 3-methyl-ester-5-isopropyl-ester], for which the minimal effective dose in the series with hypertensive rats was 1 mg/kg. In the series with coronary vessels (0.01 mg/kg), the “O2 % Rise” value amounted to 31% and the “Reversion time (to the initial value)” value is more than 3.5 h. The compound further yielded an LD50 in series [1] of 3000 mg/kg.

As to `OCCN(CCO)c1nc(N2CCCCC2)c2nc(N(CCO)CCO)nc(N3CCCCC3)c2n1` [Persantin, reference compound], the figures for the “O2 % Rise” value in the series on coronary vessels (0.3 mg/kg) and in the series on coronary vessels (0.4 mg/kg) were 23% and 34%, respectively. For the same compound, the “Reversion time (to the initial value)” value with coronary vessels (0.3 mg/kg) and in the series with coronary vessels (0.4 mg/kg) was 1 to 2 h each time.

Take `CCOC(=O)C1=C(C)N(C)C(C)=C(C(=O)OC)C1c1cccc([N+](=O)[O-])c1` (centres unmarked) [Example 1, 1,2,6-trimethyl-4-(3'-nitrophenyl)-1,4-dihydropyridine-3,5-dicarboxylic acid 3-methyl-ester-5-ethyl-ester]: in the series with hypertensive rats, the minimal effective dose stood at 0.3 mg/kg. In series [1], the LD50 stood at 3000 mg/kg.

As to `C=CCOC(=O)C1=C(C)N(C)C(C)=C(C(=O)OCC)C1c1ccccc1C#N` (centres unmarked) [Example 6, 1,2,6-trimethyl-4-(2'-cyanophenyl)-1,4-dihydropyridine-3,5-dicarboxylic acid 3-ethyl-ester-5-allyl-ester], the minimal effective dose with hypertensive rats worked out at 0.3 mg/kg. Moreover, in the series with coronary vessels (0.05 mg/kg), the “O2 % Rise” value was 39% and the “Reversion time (to the initial value)” value was more than 4 h.
